pIC50: −log10 of the molar value.
Legend:
Aurora A = target: T1, Aurora A (Homo sapiens, UniProt O14965); assay: Aurora-A autophosphorylation at T288 in HeLa cells; assay type: cell-based; settings: read-out: p-T288 IC50 (Aurora-A autophosphorylation)
T1 sequence (O14965 1-403): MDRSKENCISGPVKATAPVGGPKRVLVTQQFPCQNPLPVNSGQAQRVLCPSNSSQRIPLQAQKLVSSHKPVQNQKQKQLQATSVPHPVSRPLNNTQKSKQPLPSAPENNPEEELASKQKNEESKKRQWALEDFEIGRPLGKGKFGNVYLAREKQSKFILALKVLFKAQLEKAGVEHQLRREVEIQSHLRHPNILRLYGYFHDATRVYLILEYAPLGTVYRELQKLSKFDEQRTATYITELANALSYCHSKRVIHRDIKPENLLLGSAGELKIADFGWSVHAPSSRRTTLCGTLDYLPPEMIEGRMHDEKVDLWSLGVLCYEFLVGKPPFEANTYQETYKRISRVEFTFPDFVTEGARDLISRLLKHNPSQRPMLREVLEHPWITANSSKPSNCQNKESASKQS
Description: (§1) As part of our medicinal chemistry programme to discover selective inhibitors of Aurora-A,[12] we introduced the 1-benzyl-1H-pyrazol-4-yl moiety at C7 of the imidazo[4,5-b]pyridine scaffold to provide 7a (Table 1). We previously reported 1,3-dimethyl-1H-pyrazol-4-yl as a preferred substituent at the C2 position of the imidazo[4,5-b]pyridine scaffold[11] and this moiety was therefore incorporated into the design of 7a and analogues presented in this study. […] This in vitro profile prompted us to investigate this C7-pyrazole substituted imidazo[4,5-b]pyridine subseries in more detail. Firstly, we attempted to increase biochemical potency against Aurora-A, and also to improve microsomal stability.

Aurora B [1] = target: T2, Aurora B (Homo sapiens, UniProt Q96GD4); assay: Histone H3 phosphorylation at S10 in HeLa cells; assay type: cell-based; settings: read-out: p-HH3 IC50 (histone H3 phosphorylation at S10)
T2 sequence (Q96GD4 whole entry): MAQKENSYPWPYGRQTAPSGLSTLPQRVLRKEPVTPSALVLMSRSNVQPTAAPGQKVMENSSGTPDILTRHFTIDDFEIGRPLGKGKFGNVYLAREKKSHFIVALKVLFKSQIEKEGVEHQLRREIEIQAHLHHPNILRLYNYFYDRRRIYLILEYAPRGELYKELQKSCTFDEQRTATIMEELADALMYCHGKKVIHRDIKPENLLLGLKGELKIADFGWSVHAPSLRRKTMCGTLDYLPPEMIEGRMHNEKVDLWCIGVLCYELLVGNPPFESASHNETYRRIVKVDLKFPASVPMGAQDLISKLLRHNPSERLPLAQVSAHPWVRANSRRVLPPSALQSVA
Description: as §1

[2] = Protein binding in microsomal incubations (MLM); assay type: in vitro ADME, mouse
Description: (§2) For a better understanding of the microsomal stability data, the protein binding for 7a, 7d and 7e in microsomal incubations was measured. The percentage of 7a unbound in MLM and HLM was determined as 6.71 and 4.89, respectively. Compounds 7d and 7e were more highly bound: for 7d the percentage unbound was 0.50 in both MLM and HLM and for 7e was 0.16 and 0.10, respectively. […] The potent cell-based activity prompted us to investigate kinome selectivity profiles for this class of compound by screening 7a and 7d in a 102-kinase panel at a concentration of 1 μM.[20] […] The Gini coefficient for compound 3 was reported as 0.719,[12] and the corresponding value for compound 1 is 0.560. To understand the potential for further improvement, we obtained the crystal structure of 7a bound to Aurora-A[22] (Fig. 3, Table S3, Supplementary data). […] Similar to crystal structures of previous compounds 1, 15 and 16 (Figs. 1 and 2; compounds 51 and 40c in Ref. [10], and compound 21a in Ref. [11], respectively) the N-benzyl substituent on the C7-pyrazole is oriented towards the P-loop, making Van der Waals contacts with Val147 and Gly142 (Fig. 3).

[3] = Protein binding in microsomal incubations (HLM); assay type: in vitro ADME, human
Description: as §2

[4] = In vivo mouse pharmacokinetic profiling
Description: (§3) The mouse plasma protein binding for 7a and 7d was determined as 99.48% and >99.9%, respectively. […] In an attempt to improve the aqueous solubility, the Aurora inhibitory potency and kinase selectivity of this sub-series, we explored the introduction of basic substituents such as 1-methylpiperazine and pyrrolidine as well as replacement of the phenyl ring with a more polar heterocycle. […] It was anticipated that the introduction of small substituents on the phenyl ring in 7a would be well tolerated without altering its orientation in the kinase active site. Alternatively, we envisaged that Thr217 in Aurora-A may be accessed via an appropriate pyrazole N1-benzyl derivatisation such as a bulky amido substituent, which would form a favourable hydrogen bond interaction with the side chain hydroxyl of Thr217. Similar approaches were previously applied by us in the design of selective inhibitors of Aurora-A.[12,16]

[5] = Mouse plasma protein binding; assay type: in vitro ADME
Description: as §3

Kinetic solubility = assay type: physicochemical; settings: phosphate buffer, pH = 6.8
Description: as §3
[23] Solubility measurements were performed by Pharmorphix® Solid State Services, Member of the Sigma–Aldrich Group, Cambridge, UK.

BRSK1 = BRSK1 (Homo sapiens, UniProt Q8TDC3); assay: Kinase selectivity profiling; assay type: biochemical; settings: 1 µM, assay duplicates
Chain of BRSK1 (Q8TDC3 whole entry): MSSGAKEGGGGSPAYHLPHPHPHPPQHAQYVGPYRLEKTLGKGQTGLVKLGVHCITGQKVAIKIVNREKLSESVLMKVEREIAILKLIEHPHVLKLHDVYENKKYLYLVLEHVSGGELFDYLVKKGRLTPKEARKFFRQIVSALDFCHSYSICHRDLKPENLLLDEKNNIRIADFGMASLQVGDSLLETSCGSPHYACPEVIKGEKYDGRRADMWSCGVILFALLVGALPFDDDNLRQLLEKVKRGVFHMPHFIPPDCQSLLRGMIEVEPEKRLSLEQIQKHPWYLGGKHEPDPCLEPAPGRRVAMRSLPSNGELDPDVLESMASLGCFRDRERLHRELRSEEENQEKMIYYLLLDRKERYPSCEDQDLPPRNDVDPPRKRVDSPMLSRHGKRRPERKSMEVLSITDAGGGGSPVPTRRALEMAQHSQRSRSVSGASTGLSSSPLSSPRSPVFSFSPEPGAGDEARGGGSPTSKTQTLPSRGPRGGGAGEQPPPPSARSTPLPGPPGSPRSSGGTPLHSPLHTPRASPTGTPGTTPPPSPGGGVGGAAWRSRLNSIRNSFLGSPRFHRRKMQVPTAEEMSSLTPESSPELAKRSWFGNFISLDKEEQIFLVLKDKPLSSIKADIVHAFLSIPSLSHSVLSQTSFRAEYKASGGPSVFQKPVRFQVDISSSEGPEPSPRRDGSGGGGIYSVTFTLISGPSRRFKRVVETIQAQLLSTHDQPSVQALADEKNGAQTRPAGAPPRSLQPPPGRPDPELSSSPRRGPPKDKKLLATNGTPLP
In short: (§4)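 Each compound was tested at a single concentration of 1 µM within a broad panel of 102 or 105 protein kinases run by an external profiling centre.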

MARK1 = MARK1 (Homo sapiens, UniProt Q9P0L2); assay: Kinase selectivity profiling; assay type: biochemical; settings: 1 µM, assay duplicates
Chain of MARK1 (Q9P0L2 whole entry): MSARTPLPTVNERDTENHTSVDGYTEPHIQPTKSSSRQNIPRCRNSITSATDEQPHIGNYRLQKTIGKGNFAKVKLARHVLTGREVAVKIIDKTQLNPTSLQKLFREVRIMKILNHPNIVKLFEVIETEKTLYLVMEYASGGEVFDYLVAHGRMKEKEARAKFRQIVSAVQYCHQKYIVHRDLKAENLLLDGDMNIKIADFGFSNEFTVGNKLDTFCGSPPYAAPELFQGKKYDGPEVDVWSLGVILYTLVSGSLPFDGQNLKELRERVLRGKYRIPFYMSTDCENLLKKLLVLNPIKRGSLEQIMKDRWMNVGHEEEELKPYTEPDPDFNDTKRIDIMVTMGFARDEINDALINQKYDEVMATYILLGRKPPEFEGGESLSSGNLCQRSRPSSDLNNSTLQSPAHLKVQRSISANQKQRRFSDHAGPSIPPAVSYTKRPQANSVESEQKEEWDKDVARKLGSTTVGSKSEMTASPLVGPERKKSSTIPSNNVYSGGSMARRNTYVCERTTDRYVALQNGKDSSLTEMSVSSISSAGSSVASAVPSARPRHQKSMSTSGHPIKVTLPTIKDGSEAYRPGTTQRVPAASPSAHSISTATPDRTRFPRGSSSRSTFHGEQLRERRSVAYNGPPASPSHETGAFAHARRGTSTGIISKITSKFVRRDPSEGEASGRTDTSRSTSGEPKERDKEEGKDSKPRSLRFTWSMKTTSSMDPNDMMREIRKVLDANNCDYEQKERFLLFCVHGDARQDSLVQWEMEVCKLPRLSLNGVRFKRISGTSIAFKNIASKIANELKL
In short: as §4

Aurora B [6] = target: T2, Aurora B; assay: Kinase selectivity profiling; assay type: biochemical; settings: 1 µM, assay duplicates
In short: as §4

EPH-B4 = EPH-B4 (Homo sapiens, UniProt P54760); assay: Kinase selectivity profiling; assay type: biochemical; settings: 1 µM, assay duplicates
In short: as §4

CLK2 = CLK2 (Homo sapiens, UniProt P49760); assay: Kinase selectivity profiling; assay type: biochemical; settings: 1 µM, assay duplicates
Chain of CLK2 (P49760 whole entry): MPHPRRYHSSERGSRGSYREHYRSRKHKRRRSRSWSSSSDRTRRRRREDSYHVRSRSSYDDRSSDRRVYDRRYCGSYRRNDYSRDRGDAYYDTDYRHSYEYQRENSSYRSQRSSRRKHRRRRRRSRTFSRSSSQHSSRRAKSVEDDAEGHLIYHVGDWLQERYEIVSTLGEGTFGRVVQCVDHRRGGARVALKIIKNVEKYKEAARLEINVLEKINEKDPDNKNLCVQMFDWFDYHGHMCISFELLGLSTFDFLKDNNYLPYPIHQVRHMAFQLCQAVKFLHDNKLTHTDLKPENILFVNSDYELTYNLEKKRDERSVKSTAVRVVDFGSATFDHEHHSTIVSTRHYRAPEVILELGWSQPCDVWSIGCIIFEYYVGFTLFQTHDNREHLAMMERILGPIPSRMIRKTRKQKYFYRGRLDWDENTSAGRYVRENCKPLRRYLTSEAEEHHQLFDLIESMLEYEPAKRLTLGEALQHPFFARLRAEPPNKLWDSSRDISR
Description: (§5) [20] Kinase selectivity profiling for compounds 7a, 7d, 14d and 14g was carried out at the International Centre for Protein Kinase Profiling, Division of Signal Transduction Therapy, University of Dundee.
(§6) Table S2: Kinase selectivity profiling of compounds 14d and 14g in a 105-kinase panel screened at a concentration of 1 µM.

DAPK1 = DAPK1 (Homo sapiens, UniProt P53355); assay: Kinase selectivity profiling; assay type: biochemical; settings: 1 µM, assay duplicates
Chain of DAPK1 (P53355 whole entry): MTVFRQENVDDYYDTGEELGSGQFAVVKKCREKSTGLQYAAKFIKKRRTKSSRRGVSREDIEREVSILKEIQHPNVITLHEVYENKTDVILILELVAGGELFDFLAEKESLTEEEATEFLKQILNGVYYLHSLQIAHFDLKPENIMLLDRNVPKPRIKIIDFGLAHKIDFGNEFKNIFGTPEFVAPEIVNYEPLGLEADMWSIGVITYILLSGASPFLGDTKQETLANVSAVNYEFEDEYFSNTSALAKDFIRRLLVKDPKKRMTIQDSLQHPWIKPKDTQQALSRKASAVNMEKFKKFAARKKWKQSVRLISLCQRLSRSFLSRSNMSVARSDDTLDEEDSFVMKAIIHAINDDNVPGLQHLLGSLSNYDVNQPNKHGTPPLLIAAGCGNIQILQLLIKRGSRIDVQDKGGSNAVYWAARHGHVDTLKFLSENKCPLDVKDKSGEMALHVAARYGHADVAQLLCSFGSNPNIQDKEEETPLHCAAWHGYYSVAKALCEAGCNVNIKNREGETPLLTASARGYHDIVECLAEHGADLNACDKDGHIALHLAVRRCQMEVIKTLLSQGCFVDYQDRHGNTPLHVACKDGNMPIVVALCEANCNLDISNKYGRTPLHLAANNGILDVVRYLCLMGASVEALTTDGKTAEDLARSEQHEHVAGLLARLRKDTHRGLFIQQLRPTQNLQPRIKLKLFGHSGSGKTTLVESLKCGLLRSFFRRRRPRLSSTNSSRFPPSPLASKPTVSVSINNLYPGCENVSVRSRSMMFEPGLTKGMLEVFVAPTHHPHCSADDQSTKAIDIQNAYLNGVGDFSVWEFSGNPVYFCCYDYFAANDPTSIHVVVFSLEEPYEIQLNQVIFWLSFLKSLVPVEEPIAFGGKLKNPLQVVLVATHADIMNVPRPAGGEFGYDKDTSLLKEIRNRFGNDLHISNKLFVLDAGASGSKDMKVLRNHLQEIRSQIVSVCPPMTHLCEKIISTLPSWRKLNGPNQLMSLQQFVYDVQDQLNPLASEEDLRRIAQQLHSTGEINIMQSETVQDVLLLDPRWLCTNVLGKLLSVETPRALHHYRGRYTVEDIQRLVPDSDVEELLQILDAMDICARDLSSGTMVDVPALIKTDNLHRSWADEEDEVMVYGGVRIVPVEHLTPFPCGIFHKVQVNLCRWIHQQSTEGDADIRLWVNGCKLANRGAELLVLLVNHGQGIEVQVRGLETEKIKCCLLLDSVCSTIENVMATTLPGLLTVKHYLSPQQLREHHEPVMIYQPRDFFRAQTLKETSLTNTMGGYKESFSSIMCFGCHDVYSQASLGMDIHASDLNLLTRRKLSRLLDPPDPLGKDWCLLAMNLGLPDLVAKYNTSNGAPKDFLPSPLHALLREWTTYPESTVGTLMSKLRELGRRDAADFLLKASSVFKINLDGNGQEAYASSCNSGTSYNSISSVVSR
Description: as §5, §6

EPH-B2 = EPH-B2 (Homo sapiens, UniProt P29323); assay: Kinase selectivity profiling; assay type: biochemical; settings: 1 µM, assay duplicates
Chain of EPH-B2 (P29323 19-1055): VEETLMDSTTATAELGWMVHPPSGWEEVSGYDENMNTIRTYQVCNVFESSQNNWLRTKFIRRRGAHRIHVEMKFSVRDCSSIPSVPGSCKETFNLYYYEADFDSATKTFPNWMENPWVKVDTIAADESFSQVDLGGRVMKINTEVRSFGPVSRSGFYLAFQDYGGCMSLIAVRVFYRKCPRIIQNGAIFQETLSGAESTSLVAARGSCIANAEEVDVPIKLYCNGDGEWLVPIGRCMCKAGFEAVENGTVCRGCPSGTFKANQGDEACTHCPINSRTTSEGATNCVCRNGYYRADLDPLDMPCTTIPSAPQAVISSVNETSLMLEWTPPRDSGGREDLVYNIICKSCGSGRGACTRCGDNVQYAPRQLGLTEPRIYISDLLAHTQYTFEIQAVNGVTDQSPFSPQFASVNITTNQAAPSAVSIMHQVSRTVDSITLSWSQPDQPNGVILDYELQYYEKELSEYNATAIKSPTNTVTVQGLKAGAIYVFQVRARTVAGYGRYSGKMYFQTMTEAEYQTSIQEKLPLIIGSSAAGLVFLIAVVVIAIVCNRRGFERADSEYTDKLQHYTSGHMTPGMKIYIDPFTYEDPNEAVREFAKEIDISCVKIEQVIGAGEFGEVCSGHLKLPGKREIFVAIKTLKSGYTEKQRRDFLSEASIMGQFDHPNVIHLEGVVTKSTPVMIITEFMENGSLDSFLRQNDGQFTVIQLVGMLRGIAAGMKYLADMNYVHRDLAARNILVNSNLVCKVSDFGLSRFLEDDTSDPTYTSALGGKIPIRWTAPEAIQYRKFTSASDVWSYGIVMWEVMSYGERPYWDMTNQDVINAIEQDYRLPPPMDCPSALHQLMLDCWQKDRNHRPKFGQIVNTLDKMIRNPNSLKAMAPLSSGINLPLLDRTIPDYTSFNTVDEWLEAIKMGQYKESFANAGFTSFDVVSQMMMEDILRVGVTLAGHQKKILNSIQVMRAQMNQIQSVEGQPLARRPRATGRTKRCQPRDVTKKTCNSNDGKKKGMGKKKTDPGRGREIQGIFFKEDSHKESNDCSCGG
Description: as §5, §6

Structure (SMILES) | pIC50 (Aurora A) | pIC50 (Aurora B [1]) | percentage unbound in MLM [2] [%] | percentage unbound in HLM [3] [%] | oral bioavailability [4] [%] | mouse plasma protein binding [5] [%] | kinetic solubility (Kinetic solubility) [µg/mL] | BRSK1 % activity remaining (BRSK1) [%] | MARK1 % activity remaining (MARK1) [%] | Aurora B % activity remaining (Aurora B [6]) [%] | EPH-B4 % activity remaining (EPH-B4) [%] | CLK2 % activity remaining (CLK2) [%] | DAPK1 % activity remaining (DAPK1) [%] | EPH-B2 % activity remaining (EPH-B2) [%]
Cc1nn(C)cc1-c1nc2c(-c3cnn(Cc4ccccc4)c3)c(Cl)cnc2[nH]1 [Compound 7a] | 7.06 | 6.65 | 6.71 | 4.89 | 13 | 99.48 | < 0.1 | 36 | 31 | – | – | – | – | –
Cc1cc(Cn2cc(-c3c(Cl)cnc4[nH]c(-c5cn(C)nc5C)nc34)cn2)no1 [Compound 14d] | – | – | – | – | – | – | – | 61 | 38 | 8 | 86 | 2 | 24 | 60

Source: paper PMC4577729, “7-(Pyrazol-4-yl)-3H-imidazo[4,5-b]pyridine-based derivatives for kinase inhibition: Co-crystallisation studies with Aurora-A reveal distinct differences in the orientation of the pyrazole N1-substituent” (Bioorganic & Medicinal Chemistry Letters, 2015)
